Among the data in PubChem BioAssay AID1645866 (Buhrlage Lab, Dana-Farber Cancer Institute and Novartis …, 2021) are IC50 values, retold here.

Calls of active or inactive are those of the source.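 How the source made its calls: active means in confirmatory dose-response testing, peak deubiquitinase inhibition of 30% or more; inactive means the rest.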

In the test the target is Ubiquitin carboxyl-terminal hydrolase 28 (Homo sapiens) (UniProt Q96RU2). The experiment in a line: Ubiquitin-specific peptidase 28 DUB inhibitors, biochemical concentration-dependence assay, validation of primary screening hits (AID 1645866). The following applies: purified USP28, ubiquitin-rhodamine fluorescence, 30 min.
Chain of Ubiquitin carboxyl-terminal hydrolase 28 (Homo sapiens) (Q96RU2 whole entry, looked up): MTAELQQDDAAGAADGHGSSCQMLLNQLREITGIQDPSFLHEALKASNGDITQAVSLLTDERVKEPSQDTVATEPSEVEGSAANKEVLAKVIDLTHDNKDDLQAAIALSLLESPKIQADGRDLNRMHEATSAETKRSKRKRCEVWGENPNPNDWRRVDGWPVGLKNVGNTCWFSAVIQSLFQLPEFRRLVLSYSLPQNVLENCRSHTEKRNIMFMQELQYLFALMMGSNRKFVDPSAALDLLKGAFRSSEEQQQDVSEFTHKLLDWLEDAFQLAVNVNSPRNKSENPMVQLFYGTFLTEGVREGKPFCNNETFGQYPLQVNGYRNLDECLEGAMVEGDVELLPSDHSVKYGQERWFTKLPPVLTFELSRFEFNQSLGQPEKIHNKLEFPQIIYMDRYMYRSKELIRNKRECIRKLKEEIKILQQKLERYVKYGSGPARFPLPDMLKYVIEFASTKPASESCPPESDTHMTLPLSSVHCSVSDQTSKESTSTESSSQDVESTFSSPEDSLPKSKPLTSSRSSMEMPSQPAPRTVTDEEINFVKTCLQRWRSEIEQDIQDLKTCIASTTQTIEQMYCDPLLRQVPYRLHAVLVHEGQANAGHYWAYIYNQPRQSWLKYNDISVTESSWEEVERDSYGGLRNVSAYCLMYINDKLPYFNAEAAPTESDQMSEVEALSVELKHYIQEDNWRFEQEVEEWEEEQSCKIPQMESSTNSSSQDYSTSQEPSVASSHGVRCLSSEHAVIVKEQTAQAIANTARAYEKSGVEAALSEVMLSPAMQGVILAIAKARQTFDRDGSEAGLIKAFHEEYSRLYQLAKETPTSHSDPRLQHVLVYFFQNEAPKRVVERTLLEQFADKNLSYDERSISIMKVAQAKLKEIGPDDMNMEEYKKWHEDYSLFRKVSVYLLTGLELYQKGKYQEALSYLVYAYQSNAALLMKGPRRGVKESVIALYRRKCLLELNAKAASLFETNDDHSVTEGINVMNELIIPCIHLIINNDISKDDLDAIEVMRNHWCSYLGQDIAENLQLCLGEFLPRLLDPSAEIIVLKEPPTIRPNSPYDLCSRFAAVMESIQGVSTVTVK
As for `O=C(CNc1nc(Nc2ccccc2F)nc(Nc2ccccc2F)n1)Nc1ccccc1`, the IC50 is 27 µM.

`O=C(CCn1c(=O)c2ccccc2n(Cc2cc(=O)n3ccccc3n2)c1=O)NCCc1ccc(Cl)cc1`: the IC50 is 19.4 µM.

As for `COc1ccc(CCNC(=O)c2cn(-c3ccc(F)cc3)nn2)cc1OC`, the IC50 is 20.8 µM.

With `COc1ccc(NC(=O)C2CCN(c3cncnc3N(C)C)CC2)cc1OC`, the IC50 is 6.74 µM.

`CN1CCN(c2ccc3nc(-c4ccccc4)c(-c4ccccc4)nc3c2)CC1`: the IC50 is > 50 µM (inactive).

Turning to `CCOc1ccc2[nH]c3c(=O)n(CCc4ccc(OC)cc4)cnc3c2c1`, the IC50 is 5.81 µM.

Take `Cc1nn(CC(=O)Nc2ccc(Br)c3cccnc23)c(=O)c2ccccc12`: the IC50 was 21.5 µM.

As to `c1csc(CCN2CCc3nc4cccnc4cc3C2)c1`, the IC50 was > 50 µM (inactive).

In the case of `CCc1ccc2c(c1)[C@]1(C(=O)N2)[C@@H]2C(=O)N(c3ccc(Cl)cc3Cl)C(=O)[C@@H]2[C@@H]2CCCN21`, the IC50 is > 50 µM (inactive).

With `Oc1ccc(-c2nc3ccc(Cl)cn3c2NC2CCCCC2)cc1`, the IC50 was 23 µM.

For `Cc1ccc(Nc2nc(C(=O)NCc3ccc4c(c3)OCO4)cc3occc23)cc1Cl`, the IC50 was 19 µM.

On to `COc1ccc(C(=O)NCC(c2ccc3c(c2)CCCN3C)N2CCCC2)cc1` (stereo not given), for which the IC50 was > 50 µM (inactive).

Regarding `N#Cc1ccccc1Cn1c(=O)n(CCCCC(=O)NCc2ccco2)c(=O)c2ccccc21`, the IC50 was 36.6 µM.

Turning to `COc1cc2cc3c(c(O)c2c(O)c1-c1c(OC)cc2cc4c(c(O)c2c1O)C(=O)OC1CC(C)OC41)C(=O)OC1CC(C)OC31` (stereo not given), the IC50 is > 50 µM (inactive).

Regarding `COc1ccc(-c2cc3nc([C@@H](C)NC(=O)c4ccc5c(c4)OCO5)nn3cn2)cc1`, the IC50 is 35.1 µM.

Consider `Cn1c(=O)cc(SCC(=O)NC2CCN(Cc3ccccc3)CC2)c2ccc(Cl)cc21`, for which the IC50 is 31.6 µM.

For the compound `CCOc1ccc(-c2nc(C#N)c(N3CCN(C(=O)c4ccccc4C)CC3)o2)cc1`, the IC50 was 12 µM.

For `COc1ccccc1NC(=O)c1cc2c(C)nn(Cc3ccccc3)c2s1`, the IC50 is 38.1 µM.

Consider `O=C(COC(=O)c1ccc(CN2CCCC2=O)cc1)c1ccc2c(c1)OCCO2`, for which the IC50 is 0.113 µM.

Take `COc1cccc(N2CCN(C(=O)c3cc(NC(C)=O)cc4nc(C)ccc34)CC2)c1`: the IC50 is > 50 µM (inactive).

For the compound `CC(C)(C)C(=O)C1C2C(=O)N(Cc3ccccc3)C(=O)C2C2c3ccccc3C=CN12` (stereo not given), the IC50 is > 50 µM (inactive).

With `N#C/C(=C\c1ccc(OCc2cccc(C(=O)O)c2)cc1)c1ccc(F)cc1`, the IC50 is 17.8 µM.

For `O=C(NCc1ccccc1)c1ccc2c(=O)n(-c3ccccc3)c(=O)[nH]c2c1`, the IC50 is 18.6 µM.

Turning to `Cc1oc2ccc(NS(=O)(=O)c3ccc(F)cc3)cc2c1C(=O)OCc1ccccc1`, the IC50 is 9.05 µM.

Regarding `COc1ccccc1CNC(=O)Nc1cccc2ccccc12`, the IC50 is 42.4 µM.

With `CCOC(=O)c1cnn(-c2ccc(C(=O)Nc3ccc(C)c(Cl)c3)cc2)c1N`, the IC50 was 5.47 µM.

Consider `Cc1ccccc1NC(=O)c1nc(-c2cn(Cc3ccc(F)cc3)nn2)no1`, for which the IC50 is 5.88 µM.

Regarding `CCc1cccc2c(C(=O)COc3ccc(C#N)cc3)c[nH]c12`, the IC50 was 15.1 µM.

Turning to `COc1cccc(CC(=O)Nc2cc(F)c3nc(N4CCOCC4)ccc3c2)c1`, the IC50 is > 50 µM (inactive).

Take `Cc1cc(Nc2ccc(C(=O)NCc3ccco3)cc2)n2nc(-c3cccnc3)nc2n1`: the IC50 is 22.3 µM.

On to `CCN(CC(=O)Nc1cc(C)on1)c1cccc2ccccc12`, for which the IC50 is > 50 µM (inactive).

On to `Cc1ccc(OC(=O)c2cn(-c3ccccc3)nc2-c2cccnc2)cc1`, for which the IC50 was > 50 µM (inactive).

In the case of `COc1c(C)c(C(O)C(C)O)c2[nH]c3ccc(CC=C(C)C)cc3c2c1O` (stereo not given), the IC50 is 17.4 µM.

As for `COc1cccc(N2CCN(C(=O)Nc3ccc4c(c3)NC(=O)CO4)CC2)c1`, the IC50 is 19.4 µM.

For `CCn1cc(-c2nc(-c3ccccc3)no2)c(=O)c2cc(F)ccc21`, the IC50 was 7.65 µM.

On to `Cc1ccc(NC(=O)c2nnn(-c3ccccc3Br)c2C)cc1C`, for which the IC50 was 1.53 µM.

Consider `CCCCC/C=C/C=C/C(=O)OC1C(O)CC(c2ccc3c(c2O)C(=O)c2c(O)cc4cc(C)cc(O)c4c2C3=O)OC1C` (stereo not given), for which the IC50 is 14.6 µM.

On to `Cc1cc(O)c(=O)cc2c1C[C@H]1CC(C)(C)/C=C/C[C@@]3(C)Oc4cc(=O)c(O)cc(C)c4C[C@@H]3C[C@H](O)[C@]1(C)O2`, for which the IC50 is > 50 µM (inactive).

On to `Cc1cccc(NC(=O)CSc2ccc(-n3cnc(-c4ccccc4)c3)nn2)c1`, for which the IC50 was 16.5 µM.

In the case of `Cc1ccc2oc(=O)c(S(=O)(=O)N3CCCCC3)cc2c1`, the IC50 is 23.2 µM.

Consider `CN1C(=O)COc2ccc(NC(=O)c3cc(-c4ccccc4)on3)cc21`, for which the IC50 was > 50 µM (inactive).

Consider `CC1=C(c2ccc(F)cc2)S(=O)(=O)NC1=NCC(=O)Nc1ccc(F)cc1F`, for which the IC50 is 41.1 µM.

In the case of `Cc1cc(C(=O)Nc2cc(C)n(Cc3ccc(Cl)cc3)n2)no1`, the IC50 was 13.4 µM.

Regarding `Cc1cccc(NC(=O)Cn2c(=O)n(Cc3ccc(F)cc3)c(=O)c3sccc32)c1`, the IC50 is 7 µM.

Regarding `O=C(Cn1cnc2c(cnn2-c2ccc(Cl)cc2)c1=O)NCc1ccccc1Cl`, the IC50 is 9.05 µM.

Take `O=C(CCCCn1c(=O)c2ccccc2n(CC(=O)Nc2ccc(F)c(Cl)c2)c1=O)NCc1ccco1`: the IC50 is > 50 µM (inactive).

For `CSc1cccc(NC(=O)CNC(=O)c2cc3ccccc3o2)c1`, the IC50 is 46.2 µM.

Regarding `COc1ccc(NC(=O)Cn2c(CS(=O)(=O)c3ccc(C)cc3)nc3ccccc32)cc1`, the IC50 was 12.4 µM.

For the compound `O=C(CSc1ncnc2c1oc1ccccc12)NC1CCCC1`, the 50% inhibitory concentration (IC50) is 20.5 µM.

Take `O=C(Cn1cncc(C(=O)NC2CCCC2)c1=O)Nc1cccc(F)c1`: the IC50 was 21.6 µM.

Take `CCN1C(=O)c2cccnc2Sc2cc(NC(=O)c3ccc(Cl)s3)ccc21`: the IC50 was 4.61 µM.

For `Cc1ccc(Cn2c(=O)c3ccccc3n3c(CCC(=O)N4CCN(c5ccccn5)CC4)nnc23)cc1`, the IC50 is 5.55 µM.

Regarding `Cc1nc2ccc(NC(=O)COc3ccccc3[N+](=O)[O-])cc2s1`, the IC50 was 11.8 µM.

Regarding `O=C(Nc1ccc2c(c1)OCO2)c1[nH]nc2c1CCc1ccccc1-2`, the IC50 was 8.02 µM.

`CNc1nc2c(c(=O)n1C)CN(C(=O)Nc1cccc3ccccc13)CC2`: the IC50 was > 50 µM (inactive).

Consider `CNC(=O)CC1NC(=O)c2csc(n2)-c2ccc(-c3nc(C4=NC(C(=O)N5CCCC5C(N)=O)CO4)cs3)nc2-c2csc(n2)-c2csc(n2)C(C(O)c2ccccc2)NC(=O)CNC(=O)c2nc(sc2COC)C(C(C)C)NC(=O)c2nc1sc2C` (stereo not given), for which the IC50 was 11.4 µM.

`Cn1c(CN2CCCCCC2)nc2cc(NC(=O)c3ccccc3)ccc21`: the IC50 is > 50 µM (inactive).

Consider `Cc1cccc(C(=O)N2CCN3Cc4ccccc4N(C)CC3C2)c1` (stereo not given), for which the IC50 was > 50 µM (inactive).

On to `Cc1cc(C)c(O)c(-c2cc(C(=O)Nc3ccccc3Cl)[nH]n2)c1`, for which the IC50 is 3.54 µM.

Turning to `CN(C)C(=O)CSc1nnc(-c2cccc(Cl)c2)n1-c1ccc(Cl)c(C(F)(F)F)c1`, the IC50 was 5.78 µM.

For `Cc1c(C)n(-c2ccccc2)c2ncn(CC(=O)NCCCc3ccccc3)c(=O)c12`, the IC50 is 23.1 µM.

Consider `COc1ccc(N2C(=O)[C@@H]3[C@H]4c5ccccc5C=CN4C(C(=O)Nc4ccc5c(c4)OCO5)[C@@H]3C2=O)cc1` (stereo not given in full), for which the IC50 was > 50 µM (inactive).

For the compound `CSc1ncccc1C(=O)OCc1ccc(Br)cc1`, the IC50 is 1.98 µM.

For `CC(=O)c1cc2c(=O)c3c(C(=O)O)c(O)c(O)cc3oc2c(C(C)=O)c1-c1coc2cc(O)c(O)c(C(=O)O)c2c1=O`, the IC50 was 1.77 µM.

On to `Cc1cc(O)c(Oc2cc(C)cc(O)c2O)c(O)c1`, for which the IC50 is 15.1 µM.

For the compound `CCCc1c(C(=O)O)c(O[C@H]2O[C@H](C)[C@@H](OC)[C@H](OC)[C@@H]2OC)cc2cc3c(c(O)c12)C(=O)c1c(O)cc(O[C@@H]2O[C@@H](C)[C@H](O[C@H]4O[C@H](C)[C@@H](OC)[C@H](OC)[C@@H]4O)[C@@H](OC)[C@H]2O)cc1C3=O`, the IC50 is > 50 µM (inactive).

As for `CC(C)(C)c1ccc(C(=O)Nc2ccc(Oc3cccnc3)nc2)cc1`, the IC50 is 20.4 µM.

Take `CCn1c(SCC(=O)c2c(N)n(CC(C)C)c(=O)n(C)c2=O)nnc1-c1ccccc1`: the IC50 is 13.9 µM.

Take `COc1ccc(CCNc2c(-c3ccccc3O)nc3cnccn23)cc1OC`: the IC50 is > 50 µM (inactive).

Consider `O=C(COc1ccc(F)cc1)Nc1cnc(-c2ccc(Cl)cc2)nc1`, for which the IC50 was 34.2 µM.

Take `COc1ccc(NC(=O)c2cc(-c3cccnc3)n[nH]2)cc1Cl`: the IC50 was 1.27 µM.

`N#Cc1cccc(NC(=O)Nc2cccn(Cc3ccccc3F)c2=O)c1`: the IC50 is 4.02 µM.

For `CSc1ccc(CNC(=O)CC2CCN(S(=O)(=O)c3ccc(C)cc3)CC2)cc1`, the IC50 was 16.3 µM.

Turning to `Cc1ccc(-n2cc3c(N4CCCC(C(=O)NCC5CCCCC5)C4)ncnc3n2)cc1` (stereo not given), the IC50 was > 50 µM (inactive).

As for `Cc1ccc(CNC(=O)c2ccc(N3C(=O)[C@@H]4Cc5ccccc5CN4C3=O)cc2)cc1`, the IC50 is 29.7 µM.

For `COc1cc(OC)cc(-c2nc(-c3cn(-c4cccc(F)c4)nn3)no2)c1`, the IC50 was 0.483 µM.

In the case of `Cc1nnc(NCc2cccnc2)c2c1nnn2Cc1ccccc1Cl`, the IC50 was 26.4 µM.

In the case of `CCn1cnc2c1c(=O)n(CC(=O)NCc1ccccc1Cl)c(=O)n2Cc1ccccc1`, the IC50 was > 50 µM (inactive).

As for `CCCCc1nc2sc3c(SCC(=O)Nc4cccc(C)c4)ncnc3c2c2c1CCC2`, the IC50 is 14 µM.

For `COc1ccc(S(=O)(=O)Nc2ccc(Nc3ccc(-n4cccn4)nn3)cc2)cc1`, the IC50 was 41 µM.

For `Cc1c(-c2ccccc2)oc2c(C(=O)OCC(=O)Nc3ccccc3F)cccc2c1=O`, the IC50 was > 50 µM (inactive).

For the compound `O=C(CNS(=O)(=O)c1ccc(F)cc1)N1CCCC(c2nnc3ccccn23)C1` (stereo not given), the IC50 was 24.4 µM.

On to `COC(=O)c1ccc(Cn2cnc3ccc(F)cc3c2=O)o1`, for which the IC50 is 3.97 µM.

As to `COc1ccc(-c2cc(-c3ccc(F)cc3)[nH]c(=O)c2C#N)cc1`, the IC50 was 21.8 µM.

On to `Fc1cccc(Cn2cc(-c3noc(-c4ccncc4)n3)nn2)c1`, for which the IC50 was 24.9 µM.
